Here are results for 40 molecules from US20180346446A1, “IRE1 SMALL MOLECULE INHIBITORS” (QUENTIS THERAPEUTICS, INC., priority 2017, published 2018).

Experiment [1] concerns the target T1, IRE1a (Homo sapiens, UniProt O75460). As to the kind of experiment: IRE1a Endoribonuclease Nanoluciferase Assay (XBP1 luciferase reporter in 293T cells). It counts as cell-based. Particulars: 293T cells transfected with XBP1 luciferase reporter, ER stressors +/- inhibitors. As to the method: Compounds disclosed herein were assessed for disruption of IRE1 signaling using a IRE1a Endoribonuclease Nanoluciferase Assay. Briefly, 2.5×10^6 293T cells were seeded in a 10 cm^2 tissue culture plate. About 24 hours later, the cells were transfected with Effectene. In a 15 mL Tube, the following was added: 2 ug XBP1 luciferase reporter plasmid (PGK-Luc2-P2A-XBP1u-Nanoluciferase-PEST); 300 ul EC buffer; and 16 ul Enhancer, followed by incubation at room temp for 5 minutes. Next, 60 ul Effectene (Qiagen 301427) was added, followed by incubation at room temperature for 10 minutes. 2.6 mL cDMEM media was added. Old media was aspirated from the cells, followed by addition of 7 mL fresh media. Full transfection mixture was added dropwise to cells. Cells were incubated for 6 hours, followed by trypsinization, centrifugation and resuspension in 11 mL media. 100 uL of cells were plated per a well in a 96 well plate. A day later, ER stressors of choice +/− inhibitors were added. To harvest, media was aspirated from cells completely, then 50 uL 1× passive lysis buffer (Promega: E1941) was added per well and put on shaker (300 rpm) for 30 minutes at room temperature. Cells were centrifuged, and 15 uL sample per well was added to a new, opaque white 384 well plate (Corning 3570). 15 uL OneGlo (nanoluciferase kit, Promega N1630) was added. Plates were spun down, placed on shaker (300 rpm) for 10 minutes. Plates were read on luminometer, 1000 ms integration time per well. 15 uL Stop and Glo (nanoluciferase kit) was added. Plates were spun down, placed on shaker (300 rpm) for 10 minutes. Plates were read on luminometer, 1000 ms second integration time per well. Recordings are provided below in Table 4.

Experiment [2] addresses T1, IRE1a. Put plainly: In vitro FRET assay (XBP1 RNA probe cleavage by IRE1a). The format is biochemical. More on the design: purchased SignalChem. Particulars: 2 nM IRE1a protein. As to the method:
In vitro FRET assay was performed to evaluate the ability of select compounds to inhibit IRE1, the results of which are summarized in Table 3. To perform the in vitro FRET assay, 1× complete assay buffer (CAB; […], 50 mM sodium citrate pH 7.15, ImM magnesium acetate, 0.02% tween 20) was used to dilute SignalChem IRE1a protein to a final concentration of 2 nM. Selected compounds were serially diluted with DMSO in a non-binding black 384-well plate for a total of 15 ul in each well. 2 ul of the serially diluted compound or DMSO control were then added to new wells containing 98 ul of 1×CAB, for a total volume of 100 ul, 10 ul of which were then transferred to wells of a new plate. 5 ul of the diluted IRE1a was then added to each well. 5 ul of a […] XBP1 RNA probe was then added to each well. Fluorescence was then read over 30 minutes in kinetic mode (485/515 nm).
Two RNA probes were used, XBP1 wildtype (SEQ ID NO: 2) which is able to be spliced by active IRE1a or XBP1 mutant (SEQ ID NO: 3) which is unable to be spliced. Each probe contained a 5′ 6-FAM modification and a 3′ IOWA Black FQ modification. […]

T1 sequence (O75460 19-977): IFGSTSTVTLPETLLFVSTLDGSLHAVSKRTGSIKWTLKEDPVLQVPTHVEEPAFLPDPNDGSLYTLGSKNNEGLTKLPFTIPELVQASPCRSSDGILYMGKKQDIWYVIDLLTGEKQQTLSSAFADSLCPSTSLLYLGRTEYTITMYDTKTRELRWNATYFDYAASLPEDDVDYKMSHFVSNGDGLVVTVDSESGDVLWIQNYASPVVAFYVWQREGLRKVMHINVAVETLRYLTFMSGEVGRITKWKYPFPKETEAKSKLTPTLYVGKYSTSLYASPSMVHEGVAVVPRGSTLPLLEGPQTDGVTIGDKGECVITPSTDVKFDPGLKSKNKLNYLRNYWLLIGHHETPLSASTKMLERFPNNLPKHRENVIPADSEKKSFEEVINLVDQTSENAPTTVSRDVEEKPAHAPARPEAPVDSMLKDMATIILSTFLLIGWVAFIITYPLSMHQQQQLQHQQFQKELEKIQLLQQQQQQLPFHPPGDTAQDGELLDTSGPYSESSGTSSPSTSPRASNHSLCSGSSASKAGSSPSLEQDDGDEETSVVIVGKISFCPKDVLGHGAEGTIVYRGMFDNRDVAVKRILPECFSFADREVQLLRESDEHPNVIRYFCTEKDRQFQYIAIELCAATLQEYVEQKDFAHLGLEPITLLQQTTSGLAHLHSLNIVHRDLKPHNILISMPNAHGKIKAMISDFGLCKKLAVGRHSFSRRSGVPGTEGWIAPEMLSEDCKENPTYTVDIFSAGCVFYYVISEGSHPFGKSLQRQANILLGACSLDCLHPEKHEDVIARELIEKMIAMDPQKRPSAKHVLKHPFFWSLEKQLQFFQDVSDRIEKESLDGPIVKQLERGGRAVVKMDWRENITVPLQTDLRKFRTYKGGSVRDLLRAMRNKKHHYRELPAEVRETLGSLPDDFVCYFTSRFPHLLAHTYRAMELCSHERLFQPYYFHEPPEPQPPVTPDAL

`N[C@H]1CC[C@H](Nc2ncc3cc(-c4ccc(NS(=O)(=O)c5ccccc5Cl)c(F)c4F)ccc3n2)CC1` [56; Formic Acid] gave an EC50 on IRE1a [1] not above 5 nM. On IRE1a [2], this molecule gave an IC50 not above 5 nM. `CCc1cc(-c2cnc(NS(=O)(=O)c3ccccc3Cl)nc2)cc2cnc(N[C@H]3CC[C@H](N)CC3)nc12` [39; Formic Acid] showed an IC50 against IRE1a [2] not above 5 nM.

`CCc1cc(-c2ccc(NS(=O)(=O)c3ccccc3Cl)nc2OC)cc2cnc(N[C@H]3CC[C@H](O)CC3)nc12` [101; Formic Acid]: on IRE1a [2], the IC50 is 5 to 50 nM. Take `N[C@H]1CC[C@H](Nc2ncc3cc(-c4ccc(NS(=O)(=O)c5ccccc5Cl)cc4)ccc3n2)CC1` [26; Formic Acid]: the EC50 on IRE1a [1] is not above 5 nM. At IRE1a [2], this molecule showed an IC50 not above 5 nM.

In turn, `CCc1cc(-c2ccc(N(C)S(=O)(=O)c3ccccc3Cl)cc2C)cc2cnc(N[C@H]3CC[C@H](N)CC3)nc12` [31; Formic Acid] displayed an IC50 against IRE1a [2] of more than 100 nM. `CCc1cc(-c2ccc(NS(=O)(=O)c3ccccc3Cl)c(F)c2)cc2cnc(N[C@@H]3CC[C@H](N)C3)nc12` [79; Formic Acid]: at IRE1a [1], the EC50 was 5 to 50 nM. The IC50 against IRE1a [2] is not above 5 nM. Turning to `N[C@H]1CC[C@H](Nc2ncc3cc(-c4ccc(NS(=O)(=O)c5ccccc5Cl)cc4F)ccc3n2)CC1` [48; Formic Acid], at IRE1a [1], the EC50 is 5 to 50 nM. Further, at IRE1a [2], the IC50 was not above 5 nM. Turning to `N[C@H]1CC[C@H](Nc2ncc3cc(-c4ccc(NS(=O)(=O)c5ccccc5Cl)nn4)ccc3n2)CC1` [49; Formic Acid], the IC50 against IRE1a [2] was not above 5 nM. `N[C@H]1CC[C@H](Nc2cc3ccc(-c4ccc(NS(=O)(=O)c5ccccc5Cl)c(F)c4)cc3cn2)CC1` [57; Formic Acid] yielded an EC50 on IRE1a [1] not above 5 nM. This molecule also had an IC50 against IRE1a [2] not above 5 nM. As for `CCc1cc(-c2ccc(NS(=O)(=O)c3ccccc3Cl)c(F)c2)cc2cnc(N[C@H]3CC[C@H](NC(=O)[C@@H](N)C(C)C)CC3)nc12` [58; Formic Acid], the EC50 on IRE1a [1] was not above 5 nM. On IRE1a [2], this molecule returned an IC50 of 5 to 50 nM. Taken in the same sequence, the figures for `N[C@H]1CC[C@@H](Nc2ncc3cc(-c4ccc(NS(=O)(=O)c5ccccc5Cl)c(F)c4)ccc3n2)C1` [80; Formic Acid] were more than 100 nM and not above 5 nM.

The molecule `CCc1cc2nc(N[C@H]3CC[C@H](N)CC3)ncc2cc1-c1ccc(NS(=O)(=O)c2ccccc2Cl)nc1OC` [110; Formic Acid] came in with an EC50 at IRE1a [1] not above 5 nM. For the same molecule, the IC50 against IRE1a [2] was not above 5 nM. At IRE1a [1], `N[C@@H]1CC[C@@H](Nc2ncc3cc(-c4ccc(NS(=O)(=O)c5ccccc5Cl)c(F)c4)ccc3n2)C1` [77; Formic Acid] showed an EC50 of 5 to 50 nM. The IC50 against IRE1a [2] is not above 5 nM.

Regarding `CCc1cc(NS(=O)(=O)c2ccccc2Cl)nnc1-c1cc(CC)c2nc(N[C@H]3CC[C@H](N)CC3)ncc2c1` [96; Formic Acid], at IRE1a [2], the IC50 is not above 5 nM.

Turning to `CCc1cc(-c2ccc(NS(=O)(=O)c3ccccc3C(F)(F)F)cc2C)cc2cnc(N[C@H]3CC[C@H](N)CC3)nc12` [Compound 7, N-(4-(2-(((1r,4r)-4-aminocyclohexyl)amino)-8-ethylquinazolin-6-yl)-3-methylphenyl)-2-(trifluoromethyl)benzenesulfonamide], the half-maximal inhibitory concentration (IC50) against IRE1a [2] is 5 to 50 nM.

On IRE1a [2], `CCc1cc(-c2ccc(NS(=O)(=O)c3ccccc3)cc2C)cc2cnc(N[C@H]3CC[C@H](N)CC3)nc12` [15; Formic Acid] displayed an IC50 of more than 100 nM. Same read-out and setting: the value for `CCc1cc(-c2ccc(NS(=O)(=O)c3ccc(Cl)cc3)cc2C)cc2cnc(N[C@H]3CC[C@H](N)CC3)nc12` [Compound 12] was more than 100 nM. Consider `CCc1cc(-c2sc(NS(=O)(=O)c3ccccc3Cl)nc2C)cc2cnc(N[C@H]3CC[C@H](N)CC3)nc12` [38; Formic Acid], for which, on IRE1a [2], the half-inhibitory concentration (IC50) was not above 5 nM. At IRE1a [2], `COc1cc(-c2ccc(NS(=O)(=O)c3ccccc3Cl)cc2C)cc2cnc(N[C@H]3CC[C@H](N)CC3)nc12` [36; Formic Acid] had a half-inhibitory concentration (IC50) not above 5 nM. Same read-out and setting: next, `CCc1cc(-c2cnc(NS(=O)(=O)c3ccccc3Cl)s2)cc2cnc(N[C@H]3CC[C@H](N)CC3)nc12` [41; Formic Acid]: not above 5 nM; `CCc1cc(-n2cc(NS(=O)(=O)c3ccccc3Cl)cn2)cc2cnc(N[C@H]3CC[C@H](N)CC3)nc12` [43; Formic Acid]: not above 5 nM. In the case of `COc1cc(-c2cc(NS(=O)(=O)c3ccccc3Cl)nn2C)cc2cnc(N[C@H]3CC[C@H](N)CC3)nc12` [45; Formic Acid], on IRE1a [2], the IC50 was 50 to 100 nM. In turn, `CCc1cc(-c2ccc(NS(=O)(=O)c3ccccc3F)cc2C)cc2cnc(N[C@H]3CC[C@H](N)CC3)nc12` [Compound 10, N-(4-(2-(((1r,4r)-4-aminocyclohexyl)amino)-8-ethylquinazolin-6-yl)-3-methylphenyl)-2-fluorobenzenesulfonamide] yielded an IC50 against IRE1a [2] not above 5 nM. As to `Cc1cc(N(C)S(=O)(=O)c2ccccc2Cl)ccc1-c1cc(O)c2nc(N[C@H]3CC[C@H](N)CC3)ncc2c1` [30; Formic Acid], on IRE1a [2], the IC50 lay within 50 to 100 nM. Still for that read-out and setting: next, `CCc1cc(-c2ccc(NS(=O)(=O)c3ccccc3Cl)cc2C(F)(F)F)cc2cnc(N[C@H]3CC[C@H](N)CC3)nc12` [14; Formic Acid]: more than 100 nM; `CCc1nc(NS(=O)(=O)c2ccccc2Cl)ccc1-c1cc2cnc(N[C@H]3CC[C@H](N)CC3)nc2cc1C` [105; Formic Acid]: not above 5 nM; `COc1nc(NS(=O)(=O)c2ccccc2Cl)c(F)cc1-c1cc(C)c2nc(N[C@H]3CC[C@@H](N)CC3)ncc2c1` [146; Formic Acid]: not above 5 nM. Still for that read-out and setting: next, `CCc1cc(-c2ccc(NS(=O)(=O)c3ccccc3Cl)nc2OC)cc2cnc(NC3CCC(C)(N(C)C)CC3)nc12` (stereo not shown) [143; Formic Acid]: 5 to 50 nM; `CCc1cc(-c2ccc(NS(=O)(=O)c3cc(Cl)ccc3Cl)cc2C)cc2cnc(N[C@H]3CC[C@H](N)CC3)nc12` [Compound 9, N-(4-(2-(((1r,4r)-4-aminocyclohexyl)amino)-8-ethylquinazolin-6-yl)-3-methylphenyl)-2,5-dichlorobenzenesulfonamide]: not above 5 nM. Still for that read-out and setting: next, `CCc1cc(-c2cc(F)c(NS(=O)(=O)c3ccccc3Cl)cc2OC)cc2cnc(N[C@H]3CC[C@H](N)CC3)nc12` [42; Formic Acid]: not above 5 nM. With `N[C@H]1CC[C@H](Nc2ncc3cc(-c4ccc(NS(=O)(=O)c5ccccc5Cl)c(F)c4)ccc3n2)CC1` [50; Formic Acid], the IC50 against IRE1a [2] was not above 5 nM. Turning to `Cc1cc2nc(N[C@H]3CC[C@H](N)CC3)ncc2cc1-c1ccc(NS(=O)(=O)c2ccccc2Cl)nc1C` [106; Formic Acid], at IRE1a [2], the IC50 was not above 5 nM. On the same count and under the same terms, next, `CC(C)c1cc(-c2cc(NS(=O)(=O)c3ccccc3Cl)nn2C)cc2cnc(N[C@H]3CC[C@H](N)CC3)nc12` [40; Formic Acid]: not above 5 nM. Same read-out and setting: next, `CCc1cc(-c2ccc(NS(=O)(=O)c3ccccc3Cl)nc2OC)cc2cnc(N[C@H]3CC[C@@H](N)CC3)nc12` [140; Formic Acid]: not above 5 nM; `CCc1cc(-c2ccc(NS(=O)(=O)c3ccccc3Cl)cc2Cl)cc2cnc(N[C@H]3CC[C@H](N)CC3)nc12` [17; Formic Acid]: more than 100 nM; `CCc1cc(-c2ccc(NS(=O)(=O)c3ccccc3OC)cc2C)cc2cnc(N[C@H]3CC[C@H](N)CC3)nc12` [Compound 13]: more than 100 nM. In turn, `COc1nc(NS(=O)(=O)c2ccccc2Cl)ccc1-c1ccc2nc(N[C@H]3CC[C@H](N)CC3)ncc2c1C` [114; Formic Acid] registered an IC50 against IRE1a [2] of 5 to 50 nM.

At IRE1a [2], `CCc1cc(-c2cc(F)c(NS(=O)(=O)c3ccccc3Cl)c(F)c2)cc2cnc(N[C@H]3CC[C@H](N)CC3)nc12` [63; Formic Acid] displayed an IC50 not above 5 nM.

`CCc1cc(-c2cc(F)c(NS(=O)(=O)c3ccccc3Cl)nc2OC)cc2cnc(N[C@H]3CC[C@@](C)(N(C)C)CC3)nc12` [144; Formic Acid] yielded an IC50 against IRE1a [2] of 50 to 100 nM. The same measure, in the same setting: the value for `CCc1cc(-c2ccc(NS(=O)(=O)c3ccccc3OC(F)(F)F)cc2C)cc2cnc(N[C@H]3CC[C@H](N)CC3)nc12` [Compound 8, N-(4-(2-(((1r,4r)-4-aminocyclohexyl)amino)-8-ethylquinazolin-6-yl)-3-methylphenyl)-2-(trifluoromethoxy)benzenesulfonamide] was 5 to 50 nM.
